# Test results published in PubChem BioAssay AID743136 (Broad Institute, 2013).
# Several values for one entry are separate records, joined by “and”; a condition that tells them apart may be missing. Equal entries are not always repeated. Activity calls are given as the source filed them.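 Rule for the calls: active = valid fitted curve with falling viability signal and AC50 at most twice the top tested concentration; inconclusive = flat curve with 30 to 70% signal loss, or poor fit; inactive = the rest, including opposite-direction effects.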
# Tested on: HepG2 viability, CellTiter-Glo ATP luminescence, 72 h
# Assay: hepatoma cell viability reduction – ATP luminescence, dry powder, Set2, 50 µM top, cytotoxicity control, dose response (AID 743136)
# Conditions: not given
row,Structure (SMILES),AC50
1,Cc1c(C(=O)O)sc2nc(/C=C/c3cccc(OC(F)(F)F)c3)[nH]c(=O)c12,> 100 µM (inactive)
2,Cc1c(C(=O)O)sc2nc(/C=C/c3cccnc3N)[nH]c(=O)c12,> 24 µM (inactive)

# Tested on: not listed separately
# Assay: as above
# Conditions: HepG2 viability, CellTiter-Glo ATP luminescence, 72 h; at 1.2 µM (top of the series)
row,Structure (SMILES),"activity change, negative = cytotoxicity"
1,Cc1c(C(=O)O)sc2nc(/C=C/c3ccc(O)cn3)[nH]c(=O)c12,-0.612% (inactive)

# Same assay, conditions: HepG2 viability, CellTiter-Glo ATP luminescence, 72 h; at 12 µM (top of the series)
row,Structure (SMILES),"activity change, negative = cytotoxicity"
1,Cc1c(C(=O)O)sc2nc(/C=C/c3ccc4[nH]ccc4n3)[nH]c(=O)c12,2.05% (inactive)

# Same assay, conditions: HepG2 viability, CellTiter-Glo ATP luminescence, 72 h; at 46 µM (top of the series)
row,Structure (SMILES),"activity change, negative = cytotoxicity"
1,Cc1c(C(=O)O)sc2nc(/C=C/c3cccc(O)c3)[nH]c(=O)c12,1.28% (inactive)

# Same assay, conditions: HepG2 viability, CellTiter-Glo ATP luminescence, 72 h; at 50 µM (top of the series)
row,Structure (SMILES),"activity change, negative = cytotoxicity"
1,Cc1c(C(=O)O)sc2nc(/C=C/c3ccc4ccccc4c3)[nH]c(=O)c12,-8.19% (inactive)
2,Cc1c(C(=O)O)sc2nc(/C=C/c3ccccc3O)[nH]c(=O)c12,-7.61% (inactive)
3,Cc1c(C(=O)O)sc2nc(/C=C/c3ccccc3)[nH]c(=O)c12,-17.2% (inactive)
4,Cc1c(C(=O)O)sc2nc(/C=C/c3cccc(N4CCNCC4)c3)[nH]c(=O)c12,-21% (inactive)
5,Cc1c(C(=O)O)sc2nc(/C=C/c3ccc4[nH]ccc4c3)[nH]c(=O)c12,1.56% (inactive)
6,Cc1c(C(=O)O)sc2nc(/C=C/c3cccc(F)c3)[nH]c(=O)c12,-10.3% (inactive)
7,Cc1c(C(=O)O)sc2nc(/C=C/c3cccc(=O)[nH]3)[nH]c(=O)c12,-1.32% (inactive)
8,Cc1c(C(=O)O)sc2nc(/C=C/c3ccc(N)nc3)[nH]c(=O)c12,-9.16% (inactive)
9,Cc1c(C(=O)O)sc2nc(/C=C/c3cccc(C(=O)O)c3)[nH]c(=O)c12,-5.9% (inactive)
10,Cc1c(C(=O)O)sc2nc(/C=C/c3cccc(O)c3)[nH]c(=O)c12,-10.4% (inactive) and -7.42% (inactive)
11,Cc1c(C(=O)O)sc2nc(/C=C/C3CC3)[nH]c(=O)c12,-1.5% (inactive)
12,Cc1c(C(=O)O)sc2nc(/C=C/c3ccc4cc[nH]c4c3)[nH]c(=O)c12,-21% (inactive)
13,Cc1c(C(=O)O)sc2nc(/C=C/c3cccc(C(F)(F)F)c3)[nH]c(=O)c12,-10.9% (inactive)
14,COc1cccc(/C=C/c2nc3sc(C(=O)O)c(C)c3c(=O)[nH]2)c1,-15.1% (inactive)
15,Cc1c(C(=O)O)sc2nc(/C=C/c3cc4ccccc4cn3)[nH]c(=O)c12,-5.12% (inactive)
16,Cc1c(C(=O)O)sc2nc(/C=C/c3cccc(N4CCOCC4)n3)[nH]c(=O)c12,-4.25% (inactive)
17,Cc1c(C(=O)O)sc2nc(/C=C/c3ccncc3)[nH]c(=O)c12,-2.2% (inactive)
18,Cc1c(C(=O)O)sc2nc(/C=C/c3cccc(N)c3)[nH]c(=O)c12,-6.41% (inactive)
19,Cc1c(C(=O)O)sc2nc(/C=C/c3cccnc3)[nH]c(=O)c12,-15.4% (inactive)
20,Cc1c(C(=O)O)sc2nc(/C=C/c3ccnc4ccccc34)[nH]c(=O)c12,-5.63% (inactive)
21,Cc1c(C(=O)O)sc2nc(/C=C/c3cccc([N+](=O)[O-])c3)[nH]c(=O)c12,-30.8% (inactive)
22,Cc1c(C(=O)O)sc2nc(/C=C/c3ccccn3)[nH]c(=O)c12,-16.2% (inactive)
23,Cc1c(C(=O)O)sc2nc(/C=C/c3cccc(C(N)=O)c3)[nH]c(=O)c12,-16.7% (inactive)
24,Cc1c(C(=O)O)sc2nc(CCc3cccc(O)c3)[nH]c(=O)c12,-14.1% (inactive)
25,Cc1c(C(=O)O)sc2nc(/C=C/C=C/c3ccccc3)[nH]c(=O)c12,20.1% (inactive)
26,Cc1c(C(=O)O)sc2nc(/C=C/c3cnc4ccccc4c3)[nH]c(=O)c12,-18.5% (inactive)
